Test [1] deals with L1210 leukemia. Description: L1210 leukemia cell proliferation inhibition (Table I). Type of test: cell-based. The conditions noted are these: Mus musculus. An excerpt: The biological activity of the compounds of this invention has been further confirmed using well known procedures against L1210 leukemia and the results set forth in Table I. The results were obtained using standard well known procedure (Li, L. H.; Kuentzel, S. L.; Murch, L. L.; Pschigoga, L. M.; and W. C. Krueger, "Comparative biological and biochemical effects of nogalamycin and its analogs on L1210 leukemia," Cancer Res. 39:4816-4822 (1979)). The results are expressed as an IC50 which is the drug concentration required to inhibit cell proliferation to 50% of that of untreated control cells. Lower numbers indicated greater activity.

The subject of test [2] is A2780 (human ovarian carcinoma) cells. Description: Cytotoxicity in A2780 (human ovarian carcinoma) cells in culture (IC90). Type of test: cell-based. The conditions noted are these: read-out: IC90 (90% growth inhibitory concentration). From the text:
(§1) The biological activity of the 7-deoxy-7-halotaxol compounds (Formula III) of the invention has been confirmed using well known procedures.

Test [3] relates to tubulin. Nature of the test: In vitro tubulin polymerization assay after Gaskin et al. Type of test: biochemical. The conditions noted are these: 20° C.; for induction of tubulin polymerization in vitro: compared with taxol.
Excerpt: (§2) The biological activity of the 7-deoxy-7β,8β-methanotaxol compounds (Formula II) of the invention has been confirmed using well known procedures.
as §1

The subject of test [4] is L1210 mouse leukemia carcinoma cells. Nature of the test: Cytotoxicity in L1210 mouse leukemia carcinoma cells in culture (IC90). Type of test: cell-based. The conditions noted are these: read-out: IC90 (90% growth inhibitory concentration).
Excerpt: as §2

The mark [5] stands for this setting: L1210, drug concentration required to inhibit cell proliferation to 50% of untreated control cells, read-out: L1210 (IC50 μg/ml).
[6] abbreviates: L1210, read-out: L1210 (IC50 μg/ml).

≈ marks a conversion by molar mass, not a printed value. Like-named read-outs stand apart in the source and are kept apart here.

In the case of `CC(=O)O[C@H]1C(=O)[C@]2(C)C(F)C[C@H]3OC[C@@]3(OC(C)=O)[C@H]2[C@H](OC(=O)c2ccccc2)[C@]2(O)C[C@H](OC(=O)[C@H](OC(=O)OCC(Cl)(Cl)Cl)[C@@H](NC(=O)c3ccccc3)c3ccccc3)C(C)=C1C2(C)C` (stereo partly drawn) [Compound 13AA, 2'-{[(2,2,2-Trichloroethyl)-oxy]carbonyl)-7-deoxy-7-fluorotaxol], in test [1] (setting [5]), the IC50 stood at 0.054 µg/mL (≈ 0.0524 µM). For `CC(=O)O[C@H]1C(=O)[C@]2(C)C(F)C[C@H]3OC[C@@]3(OC(C)=O)[C@H]2[C@H](OC(=O)c2ccccc2)[C@]2(O)C[C@H](OC(=O)[C@H](OC(=O)OCC(Cl)(Cl)Cl)[C@@H](NC(=O)OC(C)(C)C)c3ccccc3)C(C)=C1C2(C)C` (stereo partly drawn) [Compound 13DA, N-Debenzoyl-N-(t-butyl)oxycarbonyl-2'-{[(2,2,2-trichloroethyl)oxy]carbonyl}-7-deoxy-7-fluorotaxol], the IC50 in test [1] (setting [5]) was determined as 0.015 µg/mL (≈ 0.0146 µM).

Take `CC(=O)O[C@H]1C(=O)[C@]23C[C@H]2C[C@H]2OC[C@@]2(OC(C)=O)[C@H]3[C@H](OC(=O)c2ccccc2)[C@]2(O)C[C@H](OC(=O)[C@H](OC(=O)OCC(Cl)(Cl)Cl)[C@@H](NC(=O)c3ccccc3)c3ccccc3)C(C)=C1C2(C)C` [Compound 14AA, 2'-{[(2,2,2-Trichloroethyl)oxy]carbonyl}-7-deoxy-7β,8β-methanotaxol]: the IC50 in test [1] (setting [5]) is above 0.1 µg/mL. Take `CC(=O)O[C@H]1C(=O)[C@]23C[C@H]2C[C@H]2OC[C@@]2(OC(C)=O)[C@H]3[C@H](OC(=O)c2ccccc2)[C@]2(O)C[C@H](OC(=O)[C@H](OC(=O)OCC(Cl)(Cl)Cl)[C@@H](NC(=O)OC(C)(C)C)c3ccccc3)C(C)=C1C2(C)C` [Compound 14DA, N-Debenzoyl-N-(t-butyl)oxycarbonyl-2'-{[(2,2,2-trichloroethyl)oxy]carbonyl}-7-deoxy-7β,8β-methanotaxol]: the IC50 in test [1] (setting [5]) came out at 0.012 µg/mL (≈ 0.0119 µM). `CC(=O)O[C@H]1C(=O)[C@]2(C)C=C[C@H]3OC[C@@]3(OC(C)=O)[C@H]2[C@H](OC(=O)c2ccccc2)[C@]2(O)C[C@H](OC(=O)[C@H](OC(=O)OCC(Cl)(Cl)Cl)[C@@H](NC(=O)c3ccccc3)c3ccccc3)C(C)=C1C2(C)C` [Compound 15AA, 2'-{[(2,2,2-Trichloroethyl)oxy]carbonyl)-7-deoxy-Δ^6,7-taxol]: the IC50 in test [1] (setting [5]) stood at 0.012 µg/mL (≈ 0.0119 µM). On the same count and under the same terms, the figure for `CC(=O)O[C@H]1C(=O)[C@]2(C)C=C[C@H]3OC[C@@]3(OC(C)=O)[C@H]2[C@H](OC(=O)c2ccccc2)[C@]2(O)C[C@H](OC(=O)[C@H](O)[C@@H](NC(=O)c3ccccc3)c3ccccc3)C(C)=C1C2(C)C` [Compound 16A, 7-Deoxy-Δ^6,7-taxol] is 0.0042 µg/mL (≈ 0.00502 µM). Take `CC(=O)O[C@H]1C(=O)[C@]2(C)C=C[C@H]3OC[C@@]3(OC(C)=O)[C@H]2[C@H](OC(=O)c2ccccc2)[C@]2(O)C[C@H](OC(=O)[C@H](O)[C@@H](NC(=O)OC(C)(C)C)c3ccccc3)C(C)=C1C2(C)C` [Compound 16D, N-Debenzoyl-N-(t-butyl)oxycarbonyl-7-deoxy-Δ^6,7-taxol]: the IC50 in test [1] (setting [6]) is 0.0016 µg/mL (≈ 0.00192 µM). For `CC(=O)O[C@H]1C(=O)[C@]2(C)C=C[C@H]3OC[C@@]3(OC(C)=O)[C@H]2[C@H](OC(=O)c2ccccc2)[C@]2(O)C[C@H](OC(=O)[C@H](O)[C@@H](NC(=O)NC(C)(C)C)c3ccccc3)C(C)=C1C2(C)C` [Compound 16F, 13-(N-t-Butylurea-β-phenyl-isoserinyl)-Δ^6,7-baccatin III], in test [1] (setting [6]), the IC50 is 0.0032 µg/mL (≈ 0.00385 µM). In the case of `CC(=O)O[C@H]1C(=O)[C@]2(C)C(F)C[C@H]3OC[C@@]3(OC(C)=O)[C@H]2[C@H](OC(=O)c2ccccc2)[C@]2(O)C[C@H](OC(=O)[C@H](O)[C@@H](NC(=O)OC(C)(C)C)c3ccccc3)C(C)=C1C2(C)C` (stereo partly drawn) [Compound 20, N-Debenzoyl-N-(t-butyl)oxycarbonyl-7-deoxy-7-fluorotaxol], in test [1] (setting [5]), the IC50 turned out to be 0.0038 µg/mL (≈ 0.00446 µM). For `CC(=O)O[C@H]1C(=O)[C@]23C[C@H]2C[C@H]2OC[C@@]2(OC(C)=O)[C@H]3[C@H](OC(=O)c2ccccc2)[C@]2(O)C[C@H](OC(=O)[C@H](O)[C@@H](NC(=O)OC(C)(C)C)c3ccccc3)C(C)=C1C2(C)C` [Compound 23, N-Debenzoyl-N-(t-butyl)oxycarbonyl-7-deoxy-7β,8β-methanotaxol], in test [1] (setting [5]), the IC50 was 0.0046 µg/mL (≈ 0.00553 µM). On to `CC(=O)O[C@H]1C(=O)[C@]2(C)C(F)C[C@H]3OC[C@@]3(OC(C)=O)[C@H]2[C@H](OC(=O)c2ccccc2)[C@]2(O)C[C@H](OC(=O)[C@H](O)[C@@H](NC(=O)c3ccccc3)c3ccccc3)C(C)=C1C2(C)C` (stereo partly drawn) [Compound IIIb, 7-Deoxy-7-fluorotaxol], for which the IC90 in test [2] was 0.016 µg/mL (≈ 0.0187 µM). Also, the IC50 in test [1] (setting [5]) turned out to be 0.01 µg/mL (≈ 0.0117 µM). Besides, in test [3], the “potency in tubulin polymerization assay relative to taxol” value is listed as “approximately half as potent as taxol” and the “induction of tubulin polymerization in vitro” value was “able to induce tubulin polymerization in vitro at 20 °C in a manner very similar to taxol”.

`CC(=O)O[C@H]1C(=O)[C@]23C[C@H]2C[C@H]2OC[C@@]2(OC(C)=O)[C@H]3[C@H](OC(=O)c2ccccc2)[C@]2(O)C[C@H](OC(=O)[C@H](O)[C@@H](NC(=O)c3ccccc3)c3ccccc3)C(C)=C1C2(C)C` [Compound IIb, 7-Deoxy-7β,8β-methanotaxol]: the IC90 in test [4] came to 0.025 µg/mL (≈ 0.0299 µM). The IC50 in test [1] (setting [5]) is 0.012 µg/mL (≈ 0.0144 µM). Moreover, the “induction of tubulin polymerization in vitro” value in test [3] was “able to induce tubulin polymerization in vitro at 20 °C in a manner very similar to taxol”.

Consider `CC(=O)O[C@H]1C(=O)[C@@]2(C)[C@H]([C@H](OC(=O)c3ccccc3)[C@]3(O)C[C@H](OC(=O)[C@H](O)[C@@H](NC(=O)c4ccccc4)c4ccccc4)C(C)=C1C3(C)C)[C@]1(OC(C)=O)CO[C@@H]1C[C@@H]2O` [Taxol], for which the values for the IC90 in test [2] and in test [4] were 0.007 µg/mL (≈ 0.0082 µM) and 0.06 µg/mL (≈ 0.0703 µM), respectively. In test [1] (setting [5]), the IC50 amounted to 0.015 µg/mL (≈ 0.0176 µM). For the compound `CC(=O)O[C@@]12CO[C@@H]1C[C@H](O)[C@@]1(C)C(=O)[C@H](O)C3=C(C)[C@@H](OC(=O)[C@H](O)[C@@H](NC(=O)OC(C)(C)C)c4ccccc4)C[C@@](O)([C@@H](OC(=O)c4ccccc4)[C@H]21)C3(C)C` [Taxotere, reference compound], the IC50 in test [1] (setting [5]) was determined as 0.004 µg/mL (≈ 0.00495 µM).

The values above are taken from patent publication US5556878A, “Δ^6,7 -taxols antineoplatic use and pharmaceutical compositions containing them” (The Upjohn Company, priority 1994, dated 1996).
